Assay results as given in BindingDB's records for patent US20250059220 (Merck Sharp & Dohme, 2025).

Assays:
[1] = biological target: T1, Tyrosine-protein phosphatase non-receptor type 2 (Homo sapiens, UniProt P17706); assay: PTPN2 Biochemical Assay
T1 sequence (P17706 whole entry): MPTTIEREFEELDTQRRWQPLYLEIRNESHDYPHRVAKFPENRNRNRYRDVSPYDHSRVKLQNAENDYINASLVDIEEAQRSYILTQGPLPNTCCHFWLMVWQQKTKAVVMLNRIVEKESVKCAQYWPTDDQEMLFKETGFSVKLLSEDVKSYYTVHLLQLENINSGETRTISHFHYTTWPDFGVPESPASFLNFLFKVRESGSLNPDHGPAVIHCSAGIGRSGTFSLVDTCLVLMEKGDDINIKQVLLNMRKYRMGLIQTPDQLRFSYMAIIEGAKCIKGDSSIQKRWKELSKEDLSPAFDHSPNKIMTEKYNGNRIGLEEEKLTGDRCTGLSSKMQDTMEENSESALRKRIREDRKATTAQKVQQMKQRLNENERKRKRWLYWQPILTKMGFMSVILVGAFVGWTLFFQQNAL
Method: Test compounds were dissolved in DMSO, and 10-point serial 3-fold dilution series in DMSO were prepared in Echo Qualified 384-well Polypropylene Microplates (Labcyte, San Jose, CA) (top concentration 50 µM). Assay plates (384-well low volume black plates; Corning #3820, Corning, NY) were prepared by dispensing 50 nL of test compound, and DMSO (for high and low controls) by ECHO acoustic dispenser (Labcyte, San Jose CA). This was followed by addition of 5 μL of 0.2 nM human PTPN2 (1-387) solution (prepared in the assay buffer, 50 mM Tris pH 7.4, 150 mM NaCl, 0.01% Tween20, 0.5 mM dithiothreitol) to all wells except the low control. 5 μl of assay buffer was added into the low control, then the plate was incubated for 30 minutes at room temperature. Subsequently, 5 μl of 100 µM DiFMUP (6,8-difluoro-4-methylumbelliferyl phosphate) solution (prepared in assay buffer from 10 mM stock in DMSO) was added to the assay plate and incubated for 1 hour at room temperature. For detection, assay plates were read on SpectraMax Microplate Reader (Molecular Devices), with Excitation wavelength=360 nm and Emission wavelength=460 nm.

[2] = biological target: T2, Tyrosine-protein phosphatase non-receptor type 1 (Homo sapiens, UniProt P18031); assay: PTPN1 Biochemical Assay
T2 sequence (P18031 whole entry): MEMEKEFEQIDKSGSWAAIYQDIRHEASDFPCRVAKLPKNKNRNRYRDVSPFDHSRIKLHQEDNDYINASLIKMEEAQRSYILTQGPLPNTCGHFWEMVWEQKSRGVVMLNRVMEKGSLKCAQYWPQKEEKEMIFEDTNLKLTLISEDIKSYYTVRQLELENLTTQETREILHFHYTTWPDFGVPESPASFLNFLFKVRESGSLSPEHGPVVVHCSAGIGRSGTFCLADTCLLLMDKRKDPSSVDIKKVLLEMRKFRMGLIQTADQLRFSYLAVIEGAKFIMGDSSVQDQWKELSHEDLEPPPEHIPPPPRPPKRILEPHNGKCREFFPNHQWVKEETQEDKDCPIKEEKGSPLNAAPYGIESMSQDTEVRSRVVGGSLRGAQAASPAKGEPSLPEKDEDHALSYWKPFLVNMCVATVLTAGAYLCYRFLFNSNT
Method: Test compounds were dissolved in DMSO, and 10-point serial 3-fold dilution series in DMSO were prepared in Echo Qualified 384-well Polypropylene Microplates (Labcyte, San Jose, CA) (top concentration 50 µM). […] 5 μl of assay buffer was added into the low control. The plate was incubated for 30 minutes at room temperature. Subsequently, 5 μl of 100 µM DiFMUP (6,8-difluoro-4-methylumbelliferyl phosphate) solution (prepared in assay buffer from 10 mM stock in DMSO) was added to the assay plate and incubated for 1 hour at room temperature. For detection, assay plates were read on SpectraMax Microplate Reader (Molecular Devices), with Excitation wavelength=360 nm and Emission wavelength=460 nm.

IC50 [1] [nM]	IC50 [2] [nM]	SMILES
54.8	106	Cc1ccc(COc2cc(C(N)=O)cc3c(Br)c(C(F)(F)P(=O)(O)O)sc23)cc1C [US20250059220, Compound 358]
68.1	78.6	CS(=O)(=O)CCCOc1cc(C(N)=O)cc2c(C3CC3)c(C(F)(F)P(=O)(O)O)sc12 [US20250059220, Compound 458]
